Values after ≈ are worked out from the molar mass of the structure shown. Active and inactive are the calls of the source.

For data set [1], the system named is Pseudomonas aeruginosa. The data set is described as follows: Disruption of inner membrane integrity in Pseudomonas aeruginosa PAO1 ATCC 15692 co-expressing pMP2200::PrrnB plasmid assessed as induction of OPNG conversion at 256 ug/ml measured at 10 mins intervals for 1 hr. The data set is classed as functional, organism-based.
In data set [2] the test system is Escherichia coli. The data set is described as follows: Antibacterial activity against Escherichia coli CCUG after 18 hrs by microdilution broth method. On the technique in general: Dilution methods test growth across graded concentrations, often in twofold steps.
Data set [3] deals with Escherichia coli. Briefly: Antibiofilm activity against Escherichia coli MG1655 ATCC 47076 at half MIC concentration after 24 hrs by crystal violet-based assay. As to conditions: K-12 substr. MG1655 ATCC 47076. The data set is classed as functional, organism-based.
Data set [4] has as its system Klebsiella pneumoniae. Briefly: Antibacterial activity against Klebsiella pneumoniae ATCC […] after 18 hrs by microdilution broth method. It counts as functional.
Data set [5] deals with Staphylococcus aureus. The data set is described as follows: Antibacterial activity against Staphylococcus aureus ATCC 25923 after 18 hrs by microdilution broth method. It counts as functional. To be noted: ATCC 25923, 18 h.
Data set [6] deals with Escherichia coli. Briefly: Disruption of Escherichia coli MG1655 ATCC 47076 outer membrane integrity assessed as induction of NPN uptake after 30 mins by NPN fluorescence-based assay. The data set is classed as functional, organism-based. To be noted: K-12 substr. MG1655 ATCC 47076.
Data set [7] deals with Bacillus spizizenii. Briefly: Antibacterial activity against Bacillus subtilis ATCC 6633 after 18 hrs by microdilution broth method. It counts as functional. To be noted: ATCC 6633, 18 h.
For data set [8], the system named is Pseudomonas aeruginosa. The data set is described as follows: Antibacterial activity against Pseudomonas aeruginosa ATCC 27853 after 18 hrs by microdilution broth method. The data set is classed as functional.
In data set [9] the test system is Acinetobacter baumannii. The data set is described as follows: Antibacterial activity against Acinetobacter baumannii ATCC 17978 after 18 hrs by microdilution broth method. It counts as functional.
The test system of data set [10] is Pseudomonas aeruginosa. Briefly: Antibiofilm activity against Pseudomonas aeruginosa PAO1 ATCC 15692 assessed as effect on biofilm 3D structures at half MIC concentration after 24 hrs by AO-staining based confocal microscopy. It counts as functional, organism-based.
In data set [11] the test system is Escherichia coli. The data set is described as follows: Disruption of inner membrane integrity in Escherichia coli MG1655 assessed as induction of […] conversion at 256 ug/ml measured at 10 mins intervals for 1 hr. The data set is classed as functional, organism-based. As to conditions: K-12 substr. MG1655.
Data set [12] relates to Enterococcus faecalis. Briefly: Antibacterial activity against Enterococcus faecalis ATCC 19433 after 18 hrs by microdilution broth method. The data set is classed as functional. To be noted: ATCC 19433, 18 h.
For data set [13], the system named is Acinetobacter baumannii. Briefly: Disruption of Acinetobacter baumannii ATCC 19606 outer membrane integrity assessed as induction of NPN uptake after 30 mins by NPN fluorescence-based assay. As to conditions: ATCC 19606 = CIP 70.34 = JCM 6841. It counts as functional, organism-based.
Data set [14] has as its system Streptococcus pyogenes. The data set is described as follows: Antibacterial activity against Streptococcus pyogenes ATCC 12344 after 18 hrs by microdilution broth method. It counts as functional. To be noted: ATCC 12344, 18 h.
Data set [15] concerns Acinetobacter baumannii. The data set is described as follows: Antibiofilm activity against Acinetobacter baumannii ATCC 19606 assessed as effect on biofilm 3D structures at half MIC concentration after 24 hrs by AO-staining based confocal microscopy. It counts as functional, organism-based. To be noted: ATCC 19606 = CIP 70.34 = JCM 6841.
Data set [16] deals with Pseudomonas aeruginosa. Briefly: Disruption of Pseudomonas aeruginosa PAO1 ATCC 15692 outer membrane integrity assessed as induction of NPN uptake after 30 mins by NPN fluorescence-based assay. The data set is classed as functional, organism-based.
Data set [17] deals with Escherichia coli. The data set is described as follows: Antibiofilm activity against Escherichia coli MG1655 ATCC 47076 assessed as effect on biofilm 3D structures at half MIC concentration after 24 hrs by AO-staining based confocal microscopy. The data set is classed as functional, organism-based. To be noted: K-12 substr. MG1655 ATCC 47076.
Data set [18] concerns Pseudomonas aeruginosa. The data set is described as follows: Antibiofilm activity against Pseudomonas aeruginosa PAO1 ATCC 15692 at half MIC concentration after 24 hrs by crystal violet-based assay. It counts as functional, organism-based.
The nature of data set [19]: Hemolytic activity against human erythrocytes assessed as induction of hemolysis at 64 ug/ml after 30 mins. It counts as cell-based, Erythrocyte. To be noted: read-out: Activity.
For data set [20], the system named is Acinetobacter baumannii. The data set is described as follows: Antibiofilm activity against Acinetobacter baumannii ATCC 19606 at half MIC concentration after 24 hrs by crystal violet-based assay. To be noted: ATCC 19606 = CIP 70.34 = JCM 6841. The data set is classed as functional, organism-based.
The test system of data set [21] is Acinetobacter baumannii. The data set is described as follows: Disruption of inner membrane integrity in Acinetobacter baumannii ATCC 19606 co-expressing pMP2200::PrrnB plasmid assessed as induction of […] conversion at 256 ug/ml measured at 10 mins intervals for 1 hr. It counts as functional, organism-based. As to conditions: ATCC 19606 = CIP 70.34 = JCM 6841.

The nature of data set [22]: Apparent permeability of the compound after 5 hrs by PAMPA. It counts as ADME. (In general: In PAMPA a lipid-coated filter parts donor from acceptor wells.)
Data set [23] in a line: in vitro. To be noted: human, Caco-2.
Description: Efflux ratio of apparent permeability in human Caco2 cells at 10 uM after 120 mins by LC-MS/MS analysis
Data set [24] has as its system Stenotrophomonas maltophilia. The data set is described as follows: Antibacterial activity against Stenotrophomonas maltophilia isolate 634/08 after 18 hrs by microdilution broth method. The data set is classed as functional. As to conditions: isolate 634/08, 18 h.
In data set [25] the test system is Burkholderia cepacia. Briefly: Antibacterial activity against Burkholderia cepacia isolate SI-R2 after 18 hrs by microdilution broth method. As to conditions: isolate SI-R2, 18 h. It counts as functional.
Data set [26] has as its system Klebsiella pneumoniae. The data set is described as follows: Antibacterial activity against Klebsiella pneumoniae isolate SI-081 after 18 hrs by microdilution broth method. As to conditions: isolate SI-081, 18 h. The data set is classed as functional.
For data set [27], the system named is Acinetobacter baumannii. The data set is described as follows: Antibacterial activity against Acinetobacter baumannii isolate AC-54/97 after 18 hrs by microdilution broth method. It counts as functional. As to conditions: isolate AC-54/97, 18 h.
Data set [28] deals with Enterobacter cloacae. The data set is described as follows: Antibacterial activity against Enterobacter cloacae isolate VA-417/02 after 18 hrs by microdilution broth method. The data set is classed as functional. As to conditions: isolate VA-417/02, 18 h.
The test system of data set [29] is Escherichia coli. The data set is described as follows: Antibacterial activity against Escherichia coli CCUG after 24 hrs by microdilution broth method. It counts as functional.
The test system of data set [30] is Escherichia coli. Briefly: Bactericidal activity against Escherichia coli CCUG assessed as log reduction in CFU at 2 times MIC concentration after 1 hr by time kill assay. It counts as functional.

One may read the MIC as the smallest concentration in the dilution series that meets the test's criterion for growth inhibition. A low value points to a more susceptible organism. With `N=C(N)NCCCCCCCCCCN(CCCCCCCCCCNC(=N)NCC1CC1)C(=O)N(CCCCCCCCCCNC(=N)N)CCCCCCCCCCNC(=N)NCC1CC1`, the result in data set [1], in data set [3], in data set [10], in data set [11], in [15] and in data set [17] was inactive. Moreover, the result in data set [18], in data set [20] and in [21] was inactive. Moreover, the MIC in [2] is 16 µg/mL (≈ 16.7 µM); in data set [4] it was 8 µg/mL (≈ 8.35 µM); in data set [5], 8 µg/mL (≈ 8.35 µM); in data set [7] it was 2 µg/mL (≈ 2.09 µM); in data set [8] (ATCC 27853, 18 h), 64 µg/mL (≈ 66.8 µM); in [9] (ATCC 17978, 18 h) it was 64 µg/mL (≈ 66.8 µM). Besides, the MIC in [12] and in data set [14] was 4 µg/mL (≈ 4.18 µM) in each case. Also, the Activity result in data set [6], in data set [13] and in data set [16] was “Dose-dependent effect” in each case. The hemolysis at 0.5 h, 64 ug/ml in data set [19] is 41 to 54%.
In general, Papp refers to a coefficient for how fast a substance crosses the barrier. As to `CO[C@H]1/C=C/O[C@@]2(C)Oc3c(C)c(O)c4c(O)c(c5c(nc6cc(C)ccn65)c4c3C2=O)NC(=O)/C(C)=C\C=C\[C@H](C)[C@H](O)[C@@H](C)[C@@H](O)[C@@H](C)[C@H](OC(C)=O)[C@@H]1C` [RIFAXIMIN], the Papp at 5 h in data set [22] is 0.06 ×10⁻⁶ cm/s.
A word on the efflux ratio: it is the permeability from basolateral to apical divided by that in the opposite direction, in the common usage. Take `CC(C)NCC(O)COc1cccc2ccccc12` (stereo unspecified) [PROPRANOLOL]: the efflux ratio at 2 h, 10 µM in [23] came to 0.4.
For `N=C(NCCCCCCCCN(CCCCCCCCNC(=N)NCC1CC1)C(=O)N(CCCCCCCCNC(=N)NCC1CC1)CCCCCCCCNC(=N)NCC1CC1)NCC1CC1`, the outcome in [1], in [3], in [10], in [11], in data set [15] and in data set [17] was inactive. Further, the result in data set [18], in [20] and in data set [21] was inactive. For the same molecule, the MIC in data set [24] was found to be 8 µg/mL (≈ 8.39 µM); in [2] it was 16 µg/mL (≈ 16.8 µM); in [25] it was 32 µg/mL (≈ 33.6 µM); in data set [4], 4 µg/mL (≈ 4.2 µM); in data set [26] it was 4 µg/mL (≈ 4.2 µM); in [5], 16 µg/mL (≈ 16.8 µM). The MIC in data set [7] was 8 µg/mL (≈ 8.39 µM); in data set [8] (ATCC 27853, 18 h), 64 µg/mL (≈ 67.1 µM); in [9] (ATCC 17978, 18 h) it was 8 µg/mL (≈ 8.39 µM); in data set [12] it was 4 µg/mL (≈ 4.2 µM); in data set [14], 2 µg/mL (≈ 2.1 µM); in data set [27], 8 µg/mL (≈ 8.39 µM). Also, the lowest concentration to inhibit growth in data set [28] (MIC) was 4 µg/mL (≈ 4.2 µM). Besides, the Activity entry in [6], in data set [13] and in data set [16] was “Dose-dependent effect” throughout. The hemolysis at 0.5 h, 64 ug/ml in [19] lay in the range of 0 to 7%.
`N=C(N)NCCCCCCCCNCCCCCCCCNC(=N)NCC1CC1`: the outcome in [1], in data set [3], in [10], in data set [11], in data set [15] and in data set [17] was inactive. In addition, the result in [18], in data set [20] and in data set [21] was inactive. Moreover, the minimum inhibitory concentration (MIC) in [2] is 64 µg/mL (≈ 156 µM); in data set [4], more than 64 µg/mL; in data set [5], more than 64 µg/mL; in [7] it was 64 µg/mL (≈ 156 µM); in [8] (ATCC 27853, 18 h), more than 64 µg/mL; in data set [9] (ATCC 17978, 18 h), more than 64 µg/mL. Moreover, the MIC in [12] and in data set [14] was more than 64 µg/mL in each case. Further, the Activity result in [6], in [13] and in data set [16] was “Dose-dependent effect” each time. The hemolysis at 0.5 h, 64 ug/ml in data set [19] lay within 0 to 7%.
`N=C(N)NCCCCCCCCN(CCCCCCCCNC(=N)N)C(=O)N(CCCCCCCCNC(=N)N)CCCCCCCCNC(=N)N`: the result in data set [1], in data set [3], in data set [10], in [11], in data set [15] and in data set [17] was inactive. In addition, the result in data set [18], in data set [20] and in [21] was inactive. Moreover, the MIC came out at 4 µg/mL (≈ 5.43 µM) in [2]; 32 µg/mL (≈ 43.4 µM) in data set [4]; 2 µg/mL (≈ 2.71 µM) in [5]; 32 µg/mL (≈ 43.4 µM) in data set [7]; 32 µg/mL (≈ 43.4 µM) in [8] (ATCC 27853, 18 h); 16 µg/mL (≈ 21.7 µM) in data set [9] (ATCC 17978, 18 h). The MIC in [12] worked out at 2 µg/mL (≈ 2.71 µM); in data set [14], 1 µg/mL (≈ 1.36 µM). The Activity result in data set [6], in data set [13] and in data set [16] was “Dose-dependent effect” each time. Also, in data set [19], the hemolysis at 0.5 h, 64 ug/ml lay within 0 to 7%.
On to COLISTIN, for which the MIC in data set [29] came out at 0.5 µg/mL; in data set [4], 0.5 µg/mL; in data set [8] it was 0.5 µg/mL; in [9], 1 µg/mL. Also, in data set [30], the result was Active.

These data come from ChEMBL document CHEMBL4308851, “Alkyl-guanidine Compounds as Potent Broad-Spectrum Antibacterial Agents: Chemical Library Extension and Biological Characterization” (J Med Chem, 2018).
